Data set [1] concerns human LPL mRNA. The data set is described as follows: Test for increase in LPL mRNA expression (luciferase assay, HTB-92/p387/p383 cell line). The data set is classed as cell-based. The note with it: 120 h, HTB-92/p387/p383 cells, 5 days; for maximal fold induction: Max. Ind. Value=Lt/Lc, maximum luciferase activity over control; for EC50: concentration that increases LPL mRNA expression over the control by 50%. An excerpt:
Pharmacological Test 1 Test for Increase in LPL mRNA Expression
A luciferase assay was employed to simply and quickly detect an increase in human LPL mRNA. The principle of the assay is as follows:
Luciferase emits light when reacted with luciferine (substrate). The expression of LPL mRNA is controlled by 5′-UTR and 3′-UTR (promoter regions) of the LPL gene. By introducing the promoter regions of the LPL gene into a commercially available plasmid (for example, that produced by Clonetics Corp.) to produce a plasmid (reporter plasmid) that stably expresses luciferase in human cells, such a plasmid expresses luciferase only under conditions in which LPL mRNA can increase. Therefore, when the substrate is introduced to the expression system and the amount of luciferase expression (luciferase activity) is quantified as the extent of chemiluminescence, the amount of LPL mRNA expression can be estimated.
The test herein was performed as follows: Using a plasmid for the luciferase assay manufactured by Clontech, wherein human LPL 5′-UTR (Enerback, S., et al., Mol. Cell. Biol. 12 (10) (1992): 4622-4633) and 3′-UTR (Wion, K. L., et al., Science 235 (1987): 4796, 1638-1641) had been inserted, human-derived liposarcoma cell line SW872 (ATCC Accession No. HTB-92) was transformed to prepare an HTB-92/p387/p383 cell line, which stably expresses luciferase.
This HTB-92/p387/p383 cell line was introduced into a 225 cm^2 culture flask furnished with a culture medium and cultured at 37° C. in the absence of CO2 until reaching confluence. Leibovitz's L-15 culture medium (containing 10% FBS, 1% GlutaMaxII, 10 μg/ml streptomycin, 1 μg/ml puromycin, 250 μg/ml hygromycin B) was used as the culture medium. After reaching confluence, the cells were collected, plated on 384-well plates to have 20000 cells/well, and cultured with 50 μl/well of the culture medium under the same conditions as above (37° C., absence of CO2). After 3 days of culturing, the culture medium was replaced by 50 μl/well phenol-red-free DMEM (containing 10% FBS, 1% GlutaMax, 10 U/ml penicillin, 10 μg/ml streptomycin, 1 μg/ml puromycin, 250 μg/ml hygromycin, 1 μM dexamethasone, 0.5 μM IBMX; differentiation medium), and the cells were cultured for 5 more days at 37° C. in the presence of CO2 to differentiate.
Furthermore, the culture medium was replaced by a 50 μl/well medium containing a compound of the invention (compound prepared in an Example) as a test substance wherein the compound had been conditioned with DMSO to a specific concentration selected from 10^−4 M to 3×10^−10M. The cells were cultured for 5 days at 37° C. in the presence of CO2.
After 5 days of culturing, a luciferase substrate solution (manufactured by Promega Corporation) was introduced to each well in an amount of 30 μl/well. The cells were left to stand 10 minutes at room temperature, and luciferase activities were measured by a luminometer (a microplate scintilltion counter; The Wallac MicroBeta Trilux, manufactured by Perkin Elmer, Inc.).
Cells that had been cultured and differentiated in a differentiation medium prepared by adding 0.1% DMSO to the above-mentioned DMEM medium (differentiation medium) not containing phenol red were used as a control (i.e., cultured and differentiated for 5 days and then stimulated for 5 days). The luciferase activity of these control cells were measured as above. The EC50 value (the concentration of test substance that can increase the amount of LPL mRNA expression over the control by 50%, unit: M) was calculated based on the straight line obtained by plotting the results of the tests performed using the test substances at varying concentrations. The maximum induction (Max. Ind. values) was calculated according to the following equation: Max. Ind. Value=Lt/Lc wherein Lt represents the maximum luciferase activity occurred in response to test substance stimulation; and Lc represents the value indicating the luciferase activity of the control.

Data set [2] relates to LPL. As to the kind of experiment: Test for LPL activity-increasing effect in normal rats (skeletal muscle LPL activity). The data set is classed as in vivo. The note with it: every day for 1 week, SD rats, soleus muscle, 4 h after administration. The method, then: Test for LPL Activity-Increasing Effect in Normal Rats
6-week-old SD rats (purchased from Charles River Japan) were used as subjects. The rats were divided into groups according to body weight at the age of 5 weeks. The rats in each test group were orally administered with a 5% gum arabic suspension in an amount of 5 ml/kg of body weight, the suspension containing the test compound of the invention in such an amount that the dose of the compound of the invention became 30 mg/kg of body weight in one group and 100 mg/kg of body weight in another group. The rats in a control group were orally administered with a 5% gum arabic suspension (not containing the test compound of the invention) in an amount of 5 ml/kg of body weight. Each sample suspension was orally administered every day at a specific time of day for 1 week starting when the rats reached the age of 6 weeks.
Four hours after the administration of the sample suspension, skeletal muscle tissues of the rats were collected, then freeze-clamped and stored under liquid nitrogen. LPL activity in the skeletal muscle tissues was measured by the following method.
The soleus muscle was homogenized in a chilled solution of 0.05 mol/L NH4OH—NH4Cl buffer (pH 8.5) containing 0.5 U/mL heparin at 1 mL/100 mg of tissue wet weight. After standing on ice for 60 min with vigorous mixing at intervals of 15 min, the homogenate was centrifuged at 3000 rpm and 4° C. for 10 min and the supernatant was separated.
The substrate solution was prepared by mixing 2 μCi of glycerol tri[1-^14C]oleate, 0.133 g of unlabeled triolein, 0.9 mL of 1% Triton X-100, and 0.9 mL of 4% bovine serum albumin. in 0.2 mol/L Tris-HCl buffer (pH 8.6) and 10.2 mL of 0.2 mol/L Tris-HCl buffer (pH 8.6). The mixture was emulsified by sonication on ice for 3 min.
In a glass test tube, 0.1 mL of the tissue extract, 0.05 mL of heat-inactivated rat serum and 0.15 mL of 4% bovine serum albumin in 0.2 mol/L Tris-HCl buffer (pH 7.4) were mixed. Enzyme reaction was started by adding 0.2 mL of the substrate solution and was carried out for 30 min. at 37° C.
The reaction was stopped by addition of 2 mL of 1.5 mol/L H2SO4/2-propanol (1:40, v/v), and 1 mL of distilled water and 3 mL of hexane were added into the test tube. After vigorously shaking for 10 min. at room temperature, the test tube was centrifuged for 10 min. at 3000 rpm.
The upper layer (3.5 mL) was collected in a new test tube and mixed with 1 mL of 0.1 mol/L KOH.
The test tube was vigorously shaken for 10 min. at room temperature and then centrifuged for 10 min. at 3000 rpm.
After removing the upper layer, 1 mL of the lower layer (water phase) was transferred into a vial for counting, neutralized with 50 μL of 1.3 mol/L HCl and mixed with 4 mL of scintillator. The radioactivity was measured using a liquid scintillation counter.
The LPL activity increase (%) was calculated from the measured values of LPL activity in the control group and test groups according to the following formula: LPL activity increase (%)=(Test group average value)/(Control group average value)×100−100

A short description of data set [3]: Therapeutical effect on olive oil-induced triglyceride hyperlipidemia models. The data set is classed as in vivo. The note with it: once a day for one week, SD rats, 2 h after olive oil. The protocol: Test of Therapeutical Effect on Olive Oil-Induced Triglyceride Hyperlipidemia Models
To conduct this test, 6-week-old SD rats (purchased from Charles River Japan) were used.
According to the body weight of the test rats when they were 5 weeks old, the test rats were divided into test groups and a control group with 6 rats per group.
A predetermined amount of each compound prepared in the Examples was measured and placed in an agate mortar. While 5% aqueous gum arabic solution was gradually introduced to the mortar, the compound was uniformly ground and suspended. Test samples were prepared by further adding 5% aqueous gum arabic solution gradually. Subsequently, these test samples were subjected to ultrasonic washing for 10 minutes to homogenize. Test samples were prepared as and when necessary.
The rats of the test groups were orally administered with the compounds of the invention such that rats received the compounds in an amount of 10, 30, or 100 mg/kg. The compounds of the invention were formulated as 5% gum arabic suspensions as described above.
The rats of the control group were orally administered with 5% aqueous gum arabic solution (not containing the compounds of the invention) in an amount of 5 ml/kg body weight. Administration was conducted once a day continuously for one week at a specific time of day after the rats reached 6 weeks of age. This test was performed under non-fasting conditions (rats had free access to feed and water), and the rats were fasted after the final administration of the compounds or 5% aqueous gum arabic solution.
Two hours after the final administration, olive oil was orally administered to the rats from both groups in an amount of 3 ml/kg body weight.
Two hours after the olive oil administration, blood was collected from the abdominal aorta of the rats of the respective groups using a heparinized syringe. The plasma was centrifugally separated from the blood at a temperature of 4° C., and the triglyceride level of the plasma was measured. A Hitachi 7170 automatic analyzer was used as the measuring instrument. Using the values measured from the test groups and control group, the decrease (%) in plasma triglyceride level was calculated according to the following equation: Decrease (%) in plasma triglyceride concentration=(1−E/C)×100 wherein E represents the average plasma triglyceride level in each test group; and C represents the average plasma triglyceride level in the control group.

Data on nine compounds can be found in patent US8895599B2, “Lipoprotein lipase-activating compositions comprising benzene derivates” (Otsuka Pharmaceutical Factory, Inc., priority 2008, dated 2014).

In turn, `c1ccc(-c2cc3cc(-c4cn5ccccc5n4)ccc3o2)cc1` [Example 103] showed a melting point of 239.5 to 241 °C. In data set [1], this compound returned a maximal fold induction of 1.9 and an EC50 of 7.4 µM.
With `COc1cc(-c2cn3ccsc3n2)ccc1OCc1ccc(Cl)cc1` [Example 23, 6-[4-(4-chlorobenzyloxy)-3-methoxyphenyl]imidazo[2,1-b]thiazole], the melting point fell in the range of 126 to 128 °C. Moreover, the “Increase of skeletal muscle LPL activity compared to control (%)” value (“Increase … (%)” below) in data set [2] (30 mg/kg oral) was determined as 18%. Further, in data set [2] (100 mg/kg oral), the “Increase … (%)” value was determined as 15%. Also, the “Decrease in plasma triglyceride level (%)” value (“Decrease … (%)” for short) in data set [3] (10 mg/kg oral) was 66%. The “Decrease … (%)” value in data set [3] (30 mg/kg oral) worked out at 78%. Also, the “Decrease … (%)” value in data set [3] (100 mg/kg oral) came out at 77%.
As for `COc1cc(-c2cn3cccc(OCc4ccccc4)c3n2)ccc1OCc1ccc(Br)cc1` [Example 85], the melting point was in the range of 168 to 169 °C. For the same compound, the “Increase … (%)” value in data set [2] (30 mg/kg oral) is on record as 9%. Besides, the “Increase … (%)” value in data set [2] (100 mg/kg oral) is reported as 36%.
`COc1cc(-c2cn3ccccc3n2)ccc1Oc1ccc(Cl)cc1` [Example 114] showed a melting point of 148 to 149 °C. In data set [1], the maximal fold induction turned out to be 1.5 and the EC50 was determined as 7.2 µM.
In turn, `COc1cc(-c2cnc3ccccn23)ccc1OC(C)c1ccccc1` (centres unmarked) [Example 135] showed a melting point of 113 to 113.5 °C. In data set [1], the maximal fold induction was 1.8 and the EC50 stood at 5.2 µM.
For the compound `COc1cc(-c2cn3ccccc3n2)ccc1O[C@@H](C)c1ccccc1` [Example 134], the melting point lay in the range of 149 to 150 °C. In data set [1], this compound registered a maximal fold induction of 1.7 and an EC50 of 6.4 µM.
For `COc1cc(-c2cn3ccccc3n2)ccc1OCc1ccc(C#N)cc1` [Example 30], the melting point was in the range of 175 to 177 °C. Moreover, the “Increase … (%)” value in data set [2] (30 mg/kg oral) came to 22%. Moreover, the “Increase … (%)” value in data set [2] (100 mg/kg oral) was 31%. In data set [1], this compound registered a maximal fold induction of 1.9 and an EC50 of 6.7 µM.
In turn, `COc1cc(-c2cn3ccccc3n2)ccc1OCc1ccccc1F` [Example 4] returned a melting point of 115 to 117 °C. Further, in data set [1], the maximal fold induction is 1.7 and the EC50 stood at 2 µM.
On to `COc1cc(-c2cn3ccccc3n2)ccc1Oc1ccccc1` [Example 138], for which the melting point is 95 to 97 °C. In data set [1], this compound returned a maximal fold induction of 2 and an EC50 of 2 µM.

Usually melting point stands for the temperature, or range, at which the solid turns liquid. The maximal fold induction is the signal under treatment as a multiple of the control signal. High values mean a strong induction, low ones a weak induction.
